# Laboratory results published in patent publication US20100152434A1, “Protein Kinase-binding Nucleosides and Associated Methods” (priority 2007, published 2010).
# Where two headings read alike, the source gives them in different places.
# How the values were obtained:
# [1] = tested on: NCI-H322M; conditions: NCI-H322M
# [2] = tested on: MALME-3M
# [3] = tested on: IGROV1
# [4] = tested on: CAKI-1
# [5] = tested on: MOLT-4; experiment: cells; conditions: Homo sapiens
# [6] = tested on: SF-295
# [7] = tested on: CAKI-1; experiment: cells; conditions: Homo sapiens
# [8] = tested on: U251
# [9] = tested on: COLO 205
# [10] = tested on: NCI/ADR-RES; experiment: cells; conditions: Homo sapiens
# [11] = tested on: DU-145; experiment: cells; conditions: Homo sapiens
# [12] = tested on: SNB-75
# [13] = tested on: RXF 393; conditions: RXF 393
# [14] = tested on: DU-145
# [15] = tested on: SF-268; experiment: cells; conditions: Homo sapiens
# [16] = tested on: HT29
# [17] = tested on: SNB-75; experiment: cells; conditions: Homo sapiens
# [18] = tested on: HL-60(TB)
# [19] = tested on: SF-539; experiment: cells; conditions: Homo sapiens
# [20] = tested on: M14
# [21] = tested on: HOP-92
# [22] = tested on: K-562; experiment: cells; conditions: Homo sapiens
# [23] = tested on: OVCAR-5; experiment: cells; conditions: Homo sapiens
# [24] = tested on: MDA-MB-435; experiment: cells; conditions: Homo sapiens
# [25] = tested on: TK-10
# [26] = tested on: HS 578T; experiment: cells; conditions: Homo sapiens
smiles,measurement,setting,value
"CNC(=O)NC[C@H]1O[C@@H](n2cnc3c(NC(=O)Nc4ccccc4)ncnc32)[C@H](O[Si](C)(C)C(C)(C)C)[C@@H]1CC(=O)N(C)OC [Compound 13, 2′-O-(tert-Butyldimethylsilyl)-3′,5′-dideoxy-3′-[(N-methoxy-N-methylcarboxamido)methyl]-5′-[(N-methylcarbamoyl)amino]-N^6-(N-phenylcarbamoyl)adenosine]",TGI,[1],>1.00E−4 Molar
same,Percent Growth,[1]; Log10 Concentration −4.0,73%
same,Percent Growth,[1]; Log10 Concentration −5.0,90%
same,Percent Growth,[1]; Log10 Concentration −6.0,102%
same,Percent Growth,[1]; Log10 Concentration −7.0,98%
same,Percent Growth,[1]; Log10 Concentration −8.0,97%
same,TGI,[2],>1.00E−4 Molar
same,Percent Growth,[2]; Log10 Concentration −4.0,23%
same,Percent Growth,[2]; Log10 Concentration −5.0,52%
same,Percent Growth,[2]; Log10 Concentration −6.0,93%
same,Percent Growth,[2]; Log10 Concentration −7.0,88%
same,Percent Growth,[2]; Log10 Concentration −8.0,103%
same,TGI,[3],6.57E−5 Molar
same,Percent Growth,[3]; Log10 Concentration −4.0,−6%
same,Percent Growth,[3]; Log10 Concentration −5.0,26%
same,Percent Growth,[3]; Log10 Concentration −6.0,82%
same,Percent Growth,[3]; Log10 Concentration −7.0,89%
same,Percent Growth,[3]; Log10 Concentration −8.0,89%
same,TGI,[4],>1.00E−4 Molar
same,Percent Growth,[4]; Log10 Concentration −4.0,47%
same,Percent Growth,[4]; Log10 Concentration −5.0,57%
same,Percent Growth,[4]; Log10 Concentration −6.0,76%
same,Percent Growth,[4]; Log10 Concentration −7.0,72%
same,Percent Growth,[4]; Log10 Concentration −8.0,85%
same,GI50,[5]; MOLT-4,2.23 µM
same,CC50,"[5]; MOLT-4, read-out: LC50",> 100 µM
same,TGI,[6],>1.00E−4 Molar
same,Percent Growth,[6]; Log10 Concentration −4.0,20%
same,Percent Growth,[6]; Log10 Concentration −5.0,48%
same,Percent Growth,[6]; Log10 Concentration −6.0,98%
same,Percent Growth,[6]; Log10 Concentration −7.0,93%
same,Percent Growth,[6]; Log10 Concentration −8.0,93%
same,GI50,[7]; CAKI-1,53.8 µM
same,CC50,"[7]; CAKI-1, read-out: LC50",> 100 µM
same,TGI,[8],>1.00E−4 Molar
same,Percent Growth,[8]; Log10 Concentration −4.0,25%
same,Percent Growth,[8]; Log10 Concentration −5.0,37%
same,Percent Growth,[8]; Log10 Concentration −6.0,90%
same,Percent Growth,[8]; Log10 Concentration −7.0,101%
same,Percent Growth,[8]; Log10 Concentration −8.0,97%
same,TGI,[9],>1.00E−4 Molar
same,Percent Growth,[9]; Log10 Concentration −4.0,1%
same,Percent Growth,[9]; Log10 Concentration −5.0,55%
same,Percent Growth,[9]; Log10 Concentration −6.0,90%
same,Percent Growth,[9]; Log10 Concentration −7.0,93%
same,Percent Growth,[9]; Log10 Concentration −8.0,97%
same,GI50,[10],> 100 µM
same,CC50,[10]; read-out: LC50,> 100 µM
same,GI50,[11]; DU-145,16.6 µM
same,CC50,"[11]; DU-145, read-out: LC50",> 100 µM
same,TGI,[12],>1.00E−4 Molar
same,Percent Growth,[12]; Log10 Concentration −4.0,12%
same,Percent Growth,[12]; Log10 Concentration −5.0,54%
same,Percent Growth,[12]; Log10 Concentration −6.0,84%
same,Percent Growth,[12]; Log10 Concentration −7.0,95%
same,Percent Growth,[12]; Log10 Concentration −8.0,94%
same,TGI,[13],3.80E−5 Molar
same,Percent Growth,[13]; Log10 Concentration −4.0,−36%
same,Percent Growth,[13]; Log10 Concentration −5.0,49%
same,Percent Growth,[13]; Log10 Concentration −6.0,98%
same,Percent Growth,[13]; Log10 Concentration −7.0,100%
same,Percent Growth,[13]; Log10 Concentration −8.0,103%
same,TGI,[14],>1.00E−4 Molar
same,Percent Growth,[14]; Log10 Concentration −4.0,16%
same,Percent Growth,[14]; Log10 Concentration −5.0,60%
same,Percent Growth,[14]; Log10 Concentration −6.0,104%
same,Percent Growth,[14]; Log10 Concentration −7.0,112%
same,Percent Growth,[14]; Log10 Concentration −8.0,107%
same,GI50,[15]; SF-268,8.29 µM
same,CC50,"[15]; SF-268, read-out: LC50",> 100 µM
same,TGI,[16],>1.00E−4 Molar
same,Percent Growth,[16]; Log10 Concentration −4.0,17%
same,Percent Growth,[16]; Log10 Concentration −5.0,32%
same,Percent Growth,[16]; Log10 Concentration −6.0,100%
same,Percent Growth,[16]; Log10 Concentration −7.0,107%
same,Percent Growth,[16]; Log10 Concentration −8.0,104%
same,GI50,[17]; SNB-75,12.7 µM
same,CC50,"[17]; SNB-75, read-out: LC50",> 100 µM
same,TGI,[18],4.34E−6 Molar
same,Percent Growth,[18]; Log10 Concentration −4.0,−58%
same,Percent Growth,[18]; Log10 Concentration −5.0,−48%
same,Percent Growth,[18]; Log10 Concentration −6.0,84%
same,Percent Growth,[18]; Log10 Concentration −7.0,86%
same,Percent Growth,[18]; Log10 Concentration −8.0,95%
same,GI50,[19]; SF-539,22.3 µM
same,CC50,"[19]; SF-539, read-out: LC50",> 100 µM
same,TGI,[20],>1.00E−4 Molar
same,Percent Growth,[20]; Log10 Concentration −4.0,18%
same,Percent Growth,[20]; Log10 Concentration −5.0,57%
same,Percent Growth,[20]; Log10 Concentration −6.0,91%
same,Percent Growth,[20]; Log10 Concentration −7.0,98%
same,Percent Growth,[20]; Log10 Concentration −8.0,98%
same,TGI,[21],2.43E−5 Molar
same,Percent Growth,[21]; Log10 Concentration −4.0,−43%
same,Percent Growth,[21]; Log10 Concentration −5.0,27%
same,Percent Growth,[21]; Log10 Concentration −6.0,67%
same,Percent Growth,[21]; Log10 Concentration −7.0,93%
same,Percent Growth,[21]; Log10 Concentration −8.0,80%
same,GI50,[22]; K562,3.12 µM
same,CC50,"[22]; K562, read-out: LC50",> 100 µM
same,GI50,[23]; OVCAR-5,38.2 µM
same,CC50,"[23]; OVCAR-5, read-out: LC50",> 100 µM
same,GI50,[24]; MDA-MB-435,10.9 µM
same,CC50,"[24]; MDA-MB-435, read-out: LC50",> 100 µM
same,TGI,[25],>1.00E−4 Molar
same,Percent Growth,[25]; Log10 Concentration −4.0,17%
same,Percent Growth,[25]; Log10 Concentration −5.0,65%
same,Percent Growth,[25]; Log10 Concentration −6.0,104%
same,Percent Growth,[25]; Log10 Concentration −7.0,106%
same,Percent Growth,[25]; Log10 Concentration −8.0,99%
same,GI50,[26],5.79 µM
same,CC50,[26]; read-out: LC50,> 100 µM
